The record followed here is US10966961B2, “Pyrazole derivatives as bromodomain inhibitors” (GLAXOSMITHKLINE INTELLECTUAL PROPERTY (NO.2) LIMITED, priority 2017, dated 2021).

Test [1] has as its target T1, BRD4 BD2 (Homo sapiens, UniProt O60885, Y97A).
T1 construct: BRD4 (1-477) (Y97A) and (Y390A); made in house; host or cells: E. coli (pET15b vector)
In words: BRD4 BD2 TR-FRET competition assay. The conditions noted are these: for IC50: BRD4 BD2 TR-FRET, read-out: pIC50 in the BRD4 BD2 assay (converted). The test is classed as binding. The procedure:
Time Resolved Fluorescence Resonance Energy Transfer (TR-FRET) assay
Bromodomain binding was assessed utilising a time resolved fluorescent resonance energy transfer (TR-FRET) competition assay. To enable this approach a known, high affinity, pan-BET interacting small molecule was labelled with Alexa Fluor® 647, which is a far-red-fluorescent dye (Reference Compound X). Reference Compound X acts as a reporter of bromodomain binding and is the acceptor fluorophore component of the TR-FRET pair. Europium chelate, conjugated to an anti-6*His antibody, was utilised as the donor fluorophore in the TR-FRET pair. […] A TR-FRET signal is generated when the donor and acceptor fluorophores are in close proximity, between 20-80 Å, which is enabled in this assay by binding of Reference Compound X to the bromodomain protein.
Assay Principle: In order to generate a TR-FRET signal, donor fluorophore is excited by a laser at A337 nm, which subsequently leads to emission at λ618 nm. If the acceptor fluorophore is in close proximity then energy transfer can occur, which leads to emission of Alexa Fluor® 647 at λ665 nm. In the presence of competitor compound, Reference Compound X can be displaced from binding to the bromodomain. If displacement occurs, the acceptor fluorophore is no longer in proximity to the donor fluorophore, which prevents fluorescent energy transfer and, subsequently, a loss of Alexa Fluor® 647 emission at λ665 nm.
(§1) The competition of the compounds of formula (I) with Reference Compound X for binding to the BET family (BRD2, BRD3, BRD4 and BRDT) was assessed using protein truncates spanning both bromodomain 1 (BD1) and bromodomain 2 (BD2). In order to monitor differential binding to either BD1 or BD2, single residue mutations of key tyrosines to alanine were made in the acetyl lysine binding pockets. To validate this approach, a double residue mutant tandem domain protein was produced for each of the BET family members. Utilising a Fluorescence Polarisation approach, binding affinities for each of the single and double mutants for Reference Compound X were determined.
Final purification was completed by Superdex 200 prep grade size exclusion column. Purified protein was stored at −80° C. in 20 mM HEPES pH 7.5 and 100 mM NaCl. […] Protocol for Bromodomain BRD2, 3, 4 and T, BD1+BD2 mutant TR-FRET competition assays:
All assay components were dissolved in an assay buffer composing of 50 mM HEPES pH7.4, 50 mM NaCl, 5% Glycerol, 1 mM DTT and 1 mM CHAPS. Reference Compound X was diluted, in assay buffer containing 20 nM single mutant, tandem bromodomain protein, to a concentration equivalent to 2*Kd for this bromodomain. The solution containing bromodomain and Reference Compound X was added to dose response dilutions of test compound or DMSO vehicle (a maximum of 0.5% DMSO is used in this assay) in Greiner 384 well black low volume microtitre plates and subsequently incubated for 30 minutes at rt. An equal volume of 3 nM of anti-6*His Europium chelate was added to all wells, followed by a further 30 minute incubation at rt. TR-FRET was detected using a Perkin Elmer Multimode plate reader, by exciting the donor fluorophore at λ337 nm and subsequently, after a delay of 50 μsecs, measuring emission of the donor and acceptor fluorophores at λ615 nm and λ665 nm, respectively. In order to control these assays, 16 replicates each of uninhibited (DMSO vehicle) and inhibited (10*IC50 concentrations of Example 11 of WO 2011/054846A1) TR-FRET assays were included on every microtitre plate.
cA four parameter curve fit of the following form was then applied: y=a+((b−a)/(1+(10^x/10^c)^d)
Where ‘a’ is the minimum, ‘H’ is the Hill slope, ‘c’ is the pIC50 and ‘d’ is the maximum.
All compounds (Examples) were each tested in the BRD4 BD1 and the BRD4 BD2 TR-FRET assays essentially as described above. Those of skill in the art will recognise that in vitro binding assays and cell-based assays for functional activity are subject to experimental variability.

The subject of test [2] is double residue mutant tandem domain BET proteins (BRD2, BRD3, BRD4 and BRDT). In words: Fluorescence Polarisation binding of Reference Compound X to mutant tandem BET proteins. Further details: species or system Human. Particulars: double mutant vs non mutated tandem BET proteins. The procedure:
as §1, with “determined. […] The affinities of the single mutated bromdomain tandem proteins for Reference Compound X were equi-potent with the corresponding non-mutated BET protein. […] In the TR-FRET competition assay, Reference Compound X is used at a concentration that is equivalent to the Kd for the non-mutated bromodomain, which ensures that no binding at the mutated bromodomain is detected. […]” for “determined.”

Turning to `CNC(=O)c1cc(C(=O)NC2[C@H]3C[C@H](O)C[C@@H]23)n([C@H](C)c2cccc(C(F)(F)F)c2)n1` (stereo partly drawn) [Example 241], the IC50 in test [1] is 1000 to 10000 nM.

For the molecule `CNC(=O)c1cc(C(=O)N[C@H]2[C@@H]3COC[C@@H]32)n([C@@H](C)c2ccccc2)n1` [Example 1, N^5-((1R,5S,6r)-3-Oxabicyclo[3.1.0]hexan-6-yl)-N^3-methyl-1-((S)-1-phenylethyl)-1H-pyrazole-3,5-dicarboxamide], in test [1], the IC50 is 63.1 nM. In test [1] (BRD4 BD2 pIC50 − BRD4 BD1 pIC50, in at least one of the TR-FRET assays), the “selectivity for BRD4 BD2 over BRD4 BD1” value is given as 2.8 log units.

Turning to `CNC(=O)c1cc(C(=O)N[C@H]2[C@@H]3COC[C@@H]32)n([C@H](C)c2ccc(Cl)c(F)c2)n1` [Example 237], the IC50 in test [1] was 1000 to 10000 nM.

Take `COc1ccc2c(c1)C(c1ccc(Cl)cc1)=N[C@@H](CC(=O)NCCCCCNC(=O)CCCCCC1(C)/C(=C/C=C/C=C/C3=[N+](CCCCS(=O)(=O)O)c4ccc(S(=O)(=O)O)cc4C3(C)C)N(CCCCS(=O)(=O)[O-])c3ccc(S(=O)(=O)O)cc31)c1nnc(C)n1-2` (stereo partly drawn) [Reference Compound X]: the “reduction in Kd (affinity) of double mutant tandem proteins versus wild type tandem BET proteins” value in test [2] is on record as over 1000 fold.

Regarding `CNC(=O)c1cc(C(=O)NC(C)(C)C)n([C@@H](C)c2ccccc2)n1` [Example 112, (S)-N^5-(tert-Butyl)-N^3-methyl-1-(1-phenylethyl)-1H-pyrazole-3,5-dicarboxamide], the IC50 in test [1] was 1000 to 10000 nM.

For `CNC(=O)c1cc(C(=O)N[C@@H]2C[C@@H](C)[C@H](O)[C@@H](C)C2)n([C@@H](C)c2ccccc2)n1` [Example 236], the IC50 in test [1] was 1000 to 10000 nM.

`CNC(=O)c1cc(C(=O)Nc2onc(C)c2C#N)n([C@@H](C)c2ccccc2)n1` [Example 239]: in test [1], the IC50 is 1000 to 10000 nM.

Take `CNC(=O)c1cc(C(=O)NC)n(Cc2ccccc2)n1` [Example 94, 1-Benzyl-N^3,N^5-dimethyl-1H-pyrazole-3,5-dicarboxamide]: the IC50 in test [1] is 1000 to 10000 nM.

Turning to `CNC(=O)c1cc(C(=O)NC(C)C)n(Cc2ccccc2)n1` [Example 96, 1-Benzyl-N^5-isopropyl-N^3-methyl-1H-pyrazole-3,5-dicarboxamide], the IC50 in test [1] is 1000 to 10000 nM.

As for `CNC(=O)c1cc(C(=O)N[C@H]2[C@@H]3C[C@@H](O)C[C@@H]32)n([C@H](C)c2ccc(C(F)(F)F)cc2)n1` [Example 229], the IC50 in test [1] was 1000 to 10000 nM.

`CNC(=O)c1cc(C(=O)Nc2c(C)noc2C)n([C@@H](C)c2ccccc2)n1` [Example 248]: in test [1], the IC50 was 1000 to 10000 nM.

With `CNC(=O)c1cc(C(=O)N[C@H]2C[C@@H]2C)n(C(C)c2ccnc3c2ccn3S(=O)(=O)c2ccc(C)cc2)n1` (stereo partly drawn) [Example 135, N^3-Methyl-N^5-((1S,2S)-2-methylcyclopropyl)-1-(1-(1-tosyl-1H-pyrrolo[2,3-b]pyridin-4-yl)ethyl)-1H-pyrazole-3,5-dicarboxamide], the IC50 in test [1] was 1000 to 10000 nM.

As to `CNC(=O)c1cc(C(=O)N[C@H]2C[C@@H]2C)n([C@H](C)c2ccnc3[nH]ccc23)n1` [Example 137, 1-((R)-1-(1H-Pyrrolo[2,3-b]pyridin-4-yl)ethyl)-N^3-methyl-N^5-((1S,2S)-2-methylcyclopropyl)-1H-pyrazole-3,5-dicarboxamide], the IC50 in test [1] was 1000 to 10000 nM.

As for `CNC(=O)c1cc(C(=O)N[C@H]2[C@@H]3COC[C@@H]32)n([C@H](C)c2cccc3[nH]ccc23)n1` [Example 132, 1-((R)-1-(1H-Indol-4-yl)ethyl)-N^5-((1R,5S,6r)-3-oxabicyclo[3.1.0]hexan-6-yl)-N^3-methyl-1H-pyrazole-3,5-dicarboxamide], the IC50 in test [1] was 1000 to 10000 nM.

In the case of `CNC(=O)c1cc(C(=O)NC2CC2)n(Cc2ccc(C#N)cc2)n1` [Example 102, 1-(4-Cyanobenzyl)-N^5-cyclopropyl-N^3-methyl-1H-pyrazole-3,5-dicarboxamide], the IC50 in test [1] was 1000 to 10000 nM.

On to `CNC(=O)c1cc(C(=O)NC2CC2)nn1Cc1ccc2[nH]ccc2c1` [Example 233], for which the IC50 in test [1] is 1000 to 10000 nM.

Turning to `CCNC(=O)c1cc(C(=O)N[C@H]2CC[C@H](O)CC2)n([C@@H](C)c2ccccc2)n1` [Example 108, N^3-Ethyl-N^5-((1r,4S)-4-hydroxycyclohexyl)-1-((S)-1-phenylethyl)-1H-pyrazole-3,5-dicarboxamide], in test [1], the IC50 is 1000 to 10000 nM.

As to `CNC(=O)c1cc(C(=O)N[C@H]2[C@@H]3C[C@H](O)C[C@@H]32)n([C@H](C)c2cccc(C(F)(F)F)c2)n1` [Example 238], the IC50 in test [1] is 1000 to 10000 nM.

As to `CNC(=O)c1cc(C(=O)NC2CC2)nn1Cc1cccc2[nH]ccc12` [Example 234], the IC50 in test [1] is 1000 to 10000 nM.

Consider `CNC(=O)c1cc(C(=O)Nc2nnc(C(F)(F)F)s2)n([C@@H](C)c2ccccc2)n1` [Example 240], for which the IC50 in test [1] was 1000 to 10000 nM.

Regarding `CNC(=O)c1cc(C(=O)N[C@H]2[C@@H]3COC[C@@H]32)n([C@H](C)c2ccccc2)n1` [Example 109, N^5-((1R,5S,6r)-3-Oxabicyclo[3.1.0]hexan-6-yl)-N^3-methyl-1-((R)-1-phenylethyl)-1H-pyrazole-3,5-dicarboxamide], the IC50 in test [1] is 1000 to 10000 nM.

Consider `CNC(=O)c1cc(C(=O)N[C@H]2[C@@H]3COC[C@@H]32)n([C@@H](C)c2ccccc2OC)n1` [Example 136, N^5-((1R,5S,6r)-3-Oxabicyclo[3.1.0]hexan-6-yl)-1-((S)-1-(2-methoxyphenyl)ethyl)-N^3-methyl-1H-pyrazole-3,5-dicarboxamide], for which the IC50 in test [1] is 1000 to 10000 nM.

Turning to `CNC(=O)c1cc(C(=O)NC2CC2)n(Cc2ccccc2OC)n1` [Example 106, N^5-Cyclopropyl-1-(2-methoxybenzyl)-N^3-methyl-1H-pyrazole-3,5-dicarboxamide], in test [1], the IC50 was 1000 to 10000 nM.
